In PubChem BioAssay AID180 (DTP/NCI, 2004):
Values joined by “and” are separate entries in the source; they are usually repeats but may differ in a detail not shown here. Equal entries are not always repeated.

Test system: BDF1 mice, Adenocarcinoma 755 s.c., tumor weight T/C
Assay: NCI In Vivo Anticancer Drug Screen. Data for tumor model Adenocarcinoma 755 (subcutaneous) in B6D2F1 (BDF1) mice
Conditions: endpoint: mean tumor weight, vehicle: alcohol, higher = larger tumour
Method in brief: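 Compound activity was tested in mice carrying transplanted tumors. Survival or tumor size was measured, and each value is the treated-group measurement divided by that of the vehicle-treated control group (T/C).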

In the case of CCCSc1ncnc2nc[nH]c12, the T/C (dose: 0.12 mg/kg/injection, schedule: Q#A X022 (ip)) is reported as 73 % of control, the T/C (dose: 0.25 mg/kg/injection, schedule: Q#A X022 (ip)) is reported as 46 % of control and the T/C (dose: 0.5 mg/kg/injection, schedule: Q01DX011 (ip)) is reported as 80 % of control. For the same molecule, the T/C (dose: 1.0 mg/kg/injection, schedule: Q01DX006 (iv)) was 111 % of control, the T/C (dose: 1.0 mg/kg/injection, schedule: Q01DX011 (im)) was 82 % of control and the T/C (dose: 1.0 mg/kg/injection, schedule: Q01DX011 (ip)) was 55 % of control. For the same molecule, the T/C (dose: 1.0 mg/kg/injection, schedule: Q01DX011 (oral)) was 44 % of control, the T/C (dose: 1.0 mg/kg/injection, schedule: Q01DX011 (sc)) was 98 % of control and the T/C (dose: 1.0 mg/kg/injection, schedule: Q03DX004 (ip)) was 56 % of control. For the same molecule, the T/C (dose: 2.5 mg/kg/injection, schedule: Q01DX011 (ip)) was 24 % of control, the T/C (dose: 2.5 mg/kg/injection, schedule: Q#A X022 (ip)) was 7 % of control and the T/C (dose: 3.0 mg/kg/injection, schedule: Q01DX011 (oral)) was 15 % of control. The T/C (dose: 3.0 mg/kg/injection, schedule: Q03DX004 (ip)) was 85 % of control, the T/C (dose: 3.0 mg/kg/injection, schedule: Q07DX002 (ip)) was 53 % of control and the T/C (dose: 5.0 mg/kg/injection, schedule: Q01DX006 (iv)) was 16 % of control. For the same molecule, the T/C (dose: 5.0 mg/kg/injection, schedule: Q01DX011 (im)) was 9 % of control, the T/C (dose: 5.0 mg/kg/injection, schedule: Q01DX011 (ip)) was 3 % of control and the T/C (dose: 5.0 mg/kg/injection, schedule: Q01DX011 (sc)) was 5 % of control. The T/C (dose: 5.0 mg/kg/injection, schedule: Q#A X022 (ip)) was 3 % of control, the T/C (dose: 6.0 mg/kg/injection, schedule: Q01DX011 (oral)) was 4 % of control and the T/C (dose: 6.0 mg/kg/injection, schedule: Q03DX004 (ip)) was 74 % of control. The T/C (dose: 6.0 mg/kg/injection, schedule: Q07DX002 (ip)) was 20 % of control, the T/C (dose: 10.0 mg/kg/injection, schedule: Q01DX006 (iv)) was 10 % of control and the T/C (dose: 10.0 mg/kg/injection, schedule: Q01DX011 (ip)) was 4 % of control. The T/C (dose: 10.0 mg/kg/injection, schedule: Q01DX011 (sc)) was 4 % of control, the T/C (dose: 10.0 mg/kg/injection, schedule: Q#A X022 (ip)) was 4 % of control and the T/C (dose: 12.0 mg/kg/injection, schedule: Q01DX001 (ip)) was 62 % of control. The T/C (dose: 12.0 mg/kg/injection, schedule: Q01DX011 (oral)) was 4 % of control, the T/C (dose: 12.0 mg/kg/injection, schedule: Q03DX004 (ip)) was 26 % of control and the T/C (dose: 12.0 mg/kg/injection, schedule: Q07DX002 (ip)) was 36 % of control. For the same molecule, the T/C (dose: 20.0 mg/kg/injection, schedule: Q01DX006 (iv)) was 1 % of control, the T/C (dose: 20.0 mg/kg/injection, schedule: Q01DX011 (ip)) was 2 % of control and the T/C (dose: 20.0 mg/kg/injection, schedule: Q01DX011 (sc)) was 6 % of control. For the same molecule, the T/C (dose: 25.0 mg/kg/injection, schedule: Q01DX001 (ip)) was 49 % of control, the T/C (dose: 25.0 mg/kg/injection, schedule: Q03DX004 (ip)) was 5 % of control and the T/C (dose: 25.0 mg/kg/injection, schedule: Q07DX002 (ip)) was 12 % of control. The T/C (dose: 30.0 mg/kg/injection, schedule: Q01DX011 (ip)) was 3 % of control, the T/C (dose: 50.0 mg/kg/injection, schedule: Q03DX004 (ip)) was 16 % of control and the T/C (dose: 50.0 mg/kg/injection, schedule: Q07DX002 (ip)) was 16 % of control. For the same molecule, the T/C (dose: 100.0 mg/kg/injection, schedule: Q01DX001 (ip)) was 35 % of control and 51 % of control, the T/C (dose: 100.0 mg/kg/injection, schedule: Q03DX004 (ip)) was 3 % of control and the T/C (dose: 100.0 mg/kg/injection, schedule: Q07DX002 (ip)) was 17 % of control. For the same molecule, the T/C (dose: 150.0 mg/kg/injection, schedule: Q01DX001 (ip)) was 21 % of control and 34 % of control, the T/C (dose: 150.0 mg/kg/injection, schedule: Q03DX004 (ip)) was 5 % of control and the T/C (dose: 150.0 mg/kg/injection, schedule: Q07DX002 (ip)) was 5 % of control. The T/C (dose: 200.0 mg/kg/injection, schedule: Q07DX002 (ip)) was 5 % of control.
